Experimental data taken from US20050096327A1, “Novel norepinephrine reuptake inhibitors for the treatment of central nervous system disorders” (priority 2003, published 2005).
pKi: −log10 of the molar value. Where a name gives a salt, the structure may show the parent alone.

Legend:
[1] = target: T1, human norepinephrine transporter (Homo sapiens, UniProt P23975); test: hNET receptor binding ([125I]-RTI-55, membranes of transfected HEK-293 cells); settings: 50 pM [125I]-RTI-55, 90 min room temperature; IC50 converted by Cheng-Prusoff
T1 construct: host or cells: HEK-293
T1 sequence (P23975 whole entry): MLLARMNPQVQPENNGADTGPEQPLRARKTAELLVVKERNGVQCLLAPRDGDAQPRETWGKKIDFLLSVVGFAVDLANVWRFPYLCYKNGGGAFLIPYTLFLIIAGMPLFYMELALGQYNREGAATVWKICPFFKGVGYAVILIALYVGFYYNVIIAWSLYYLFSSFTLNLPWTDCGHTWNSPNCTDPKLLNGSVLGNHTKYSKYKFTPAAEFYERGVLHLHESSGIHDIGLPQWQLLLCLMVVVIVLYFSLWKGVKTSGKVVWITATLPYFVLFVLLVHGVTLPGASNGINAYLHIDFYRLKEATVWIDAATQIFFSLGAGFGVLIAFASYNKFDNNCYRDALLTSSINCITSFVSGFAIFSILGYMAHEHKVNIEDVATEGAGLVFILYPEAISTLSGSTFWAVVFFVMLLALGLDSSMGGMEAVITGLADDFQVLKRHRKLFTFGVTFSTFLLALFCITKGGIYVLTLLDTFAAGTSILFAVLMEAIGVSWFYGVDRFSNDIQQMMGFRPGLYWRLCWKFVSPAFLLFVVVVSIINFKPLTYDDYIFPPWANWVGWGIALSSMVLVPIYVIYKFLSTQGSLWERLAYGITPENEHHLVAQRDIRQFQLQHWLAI
In short: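 Competition binding on membranes from HEK-293 cells transfected with human NET, using 50 pM [125I]-RTI-55 in Krebs-HEPES pH 7.4, drug 10^−5 to 10^−12 M in duplicate, 90 min at room temperature, filtration. Nonspecific binding defined with 10 μM desipramine; IC50 converted to Ki by Cheng-Prusoff.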

[2] = target: T2, human serotonin transporter (Homo sapiens, UniProt P31645); test: hSERT receptor binding ([125I]-RTI-55, membranes of transfected HEK-293 cells); settings: 50 pM [125I]-RTI-55, 90 min room temperature; IC50 converted by Cheng-Prusoff
T2 construct: host or cells: HEK-293
T2 sequence (P31645 whole entry): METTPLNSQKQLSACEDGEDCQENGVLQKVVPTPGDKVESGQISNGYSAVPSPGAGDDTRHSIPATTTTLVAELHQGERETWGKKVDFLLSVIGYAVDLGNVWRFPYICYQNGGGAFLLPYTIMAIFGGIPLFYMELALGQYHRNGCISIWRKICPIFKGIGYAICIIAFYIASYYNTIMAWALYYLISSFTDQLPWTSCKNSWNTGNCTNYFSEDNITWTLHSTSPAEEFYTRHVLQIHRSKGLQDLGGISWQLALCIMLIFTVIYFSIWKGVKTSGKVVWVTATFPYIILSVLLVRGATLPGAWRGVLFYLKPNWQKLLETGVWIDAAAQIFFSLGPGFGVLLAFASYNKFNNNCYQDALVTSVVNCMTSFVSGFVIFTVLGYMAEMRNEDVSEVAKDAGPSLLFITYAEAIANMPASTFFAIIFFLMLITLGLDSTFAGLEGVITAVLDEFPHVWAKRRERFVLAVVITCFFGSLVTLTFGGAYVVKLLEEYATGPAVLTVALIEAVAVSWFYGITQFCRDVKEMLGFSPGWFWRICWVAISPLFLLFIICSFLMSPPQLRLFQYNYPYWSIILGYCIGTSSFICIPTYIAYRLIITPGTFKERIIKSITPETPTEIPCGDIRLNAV
Procedure: Cell pastes of HEK-293 cells transfected with the human serotonin transporter were supplied by the Pfizer Ann Arbor Protein Expression and Production Group. Pellets were resuspended in 400 to 700 mL of Krebs-HEPES assay buffer (25 mM HEPES, 122 mM NaCl, 3 mM KCl, 1.2 mM MgSO4, 1.3 mM CaCl2, and 11 mM glucose, pH 7.4) with a Polytron homogenizer at Setting 7 for 30 seconds. Aliquots of membranes (˜2.5 mg/mL protein) were stored in liquid nitrogen until used.
Assays were set up in FlashPlates pre-coated with 0.1% PEI in a total volume of 250 μL containing: drug (10^−5M to 10^−12M), cell membranes, and 50 pM [^125I]-RTI-55 (Perkin Elmer, NEX-272; specific activity 2200 Ci/mmol). The reaction was incubated and gently agitated for 90 minutes at room temperature, and terminated by removal of assay volume. Plates were covered, and bound [^125I]-RTI-55 was determined using a Wallac Trilux Beta Plate Counter. Test compounds were run in duplicate, and specific binding was defined as the difference between binding in the presence and absence of 10 μM citalopram.
Excel and GraphPad Prism software were used for data calculation and analysis. IC50 values were converted to Ki values using the Cheng-Prusoff equation. The Ki values for the hSERT are reported below in Table 1.

Compound | melting point | pKi [1] | pKi [2]
Fc1cccc(F)c1-c1nc(N2CCNCC2)nc2ccccc12 (as salt: hydrochloride) [Example 29, 4-(2,6-Difluoro-phenyl)-2-piperazin-4-yl-quinazoline hydrochloride] | 295 to 297 °C | – | –
CN[C@H]1CCN(c2nc(-c3ccccc3F)c3ccccc3n2)C1 (as salt: hydrochloride) [Example 35, (S)-(+)-1-[4-(2-Fluoro-phenyl)-quinazolin-2-yl]-pyrrolidin-3-yl}-methyl-amine hydrochloride] | 257 to 258 °C | – | –
C[C@@H]1CN(c2nc(-c3ccccc3)c3ccccc3n2)CCN1 (as salt: salt) [Example 31, (R)-(+)-2-(3-Methyl-piperazin-1-yl)-4-phenyl-quinazoline] | 241 to 242 °C | – | –
Fc1ccc(-c2nc(N3CCNCC3)nc3ccccc23)c(Cl)c1 (as salt: salt) [Example 61, 4-(2-Chloro-4-fluoro-phenyl)-2-piperazin-1-yl-quinazoline] | 248 to 251 °C | – | –
Fc1ccc(-c2nc(NC3CNC3)nc3cc(F)ccc23)c(F)c1 [Example 141, Azetidin-3-yl-[4-(2,4-difluoro-phenyl)-7-fluoro-quinazolin-2-yl]-amine] | – | 6.99 | 5.72
Fc1ccc(-c2nc(N3CC[C@@H]4CNC[C@@H]43)nc3cc(F)ccc23)c(F)c1 [Example 142, R,R-4-(2,4-Difluoro-phenyl)-7-fluoro-2-(hexahydro-pyrrolo[3,4-b]pyrrol-1-yl)-quinazoline] | – | 7.04 | 7.04
Fc1cccc(F)c1-c1nc(NC2CCNCC2)nc2ccccc12 [Example 148, [4-(2,6-Difluoro-phenyl)-quinazolin-2-yl]-piperidin-4-yl-amine] | – | 6.57 | 5.39
CNC1CCN(c2nc(-c3c(F)cccc3F)c3ccccc3n2)C1 (centres unmarked) [Example 149, {1-[4-(2,6-Difluoro-phenyl)-quinazolin-2-yl)-pyrrolidin-3-yl}-methyl-amine] | – | 6.87 | 5.79
CNC1CCN(c2nc(-c3c(F)cccc3F)c3ccccc3n2)CC1 [Example 151, {1-[4-(2,6-Difluoro-phenyl)-quinazolin-2-yl]-piperidin-4-yl}-methyl-amine] | – | 6.42 | 5.26
CNC1CCN(c2nc(-c3ccc(F)cc3F)c3ccccc3n2)CC1 [Example 153, {1-[4-(2,4-Difluoro-phenyl)-quinazolin-2-yl]-piperidin-4-yl}-methyl-amine] | – | 6.82 | < 5.00
Fc1ccc(-c2nc(NCC3CCNC3)nc3ccccc23)c(F)c1 (centres unmarked) [Example 155, [4-(2,4-Difluoro-phenyl)-quinazolin-2-yl]-pyrrolidin-3-ylmethyl-amine] | – | 6.37 | < 5.00
Fc1cccc(-c2nc(NC3CCNCC3)nc3ccccc23)c1F [Example 156, [4-(2,3-Difluoro-phenyl)-quinazolin-2-yl]-piperidin-4-yl-amine] | – | 6.66 | 5.16
CNC1CCN(c2nc(-c3cccc(F)c3F)c3ccccc3n2)C1 (centres unmarked) [Example 157, {1-[4-(2,3-Difluoro-phenyl)-quinazolin-2-yl]-pyrrolidin-3-yl}-methyl-amine] | – | 6.83 | 5.37
CNC1CCN(c2nc(-c3cccc(F)c3F)c3ccccc3n2)CC1 [Example 158] | – | 6.68 | 5.22
NCCCNc1nc(-c2cccc(F)c2F)c2ccccc2n1 [Example 159, N1-[4-(2,3-Difluoro-phenyl)-quinazolin-2-yl]-propane-1,3-diamine] | – | 6.91 | < 5.00
Fc1ccc(-c2nc(N3CCNCC3)c3ccccc3n2)c(F)c1 [Example 161, 2-(2,4-Difluoro-phenyl)-4-piperazin-1-yl-quinazoline] | – | 5.46 | 6.42
CC(C)[C@H]1CNCCN1c1nc(-c2cccc(F)c2F)c2ccccc2n1 [Example 166, S-4-(2,3-Difluoro-phenyl)-2-(2-isopropyl-piperazin-1-yl)-quinazoline] | – | 7.10 | 6.73
CC(C)[C@H]1CNCCN1c1nc(-c2ccc(F)cc2F)c2ccccc2n1 [Example 167, S-4-(2,4-Difluoro-phenyl)-2-(2-isopropyl-piperazin-1-yl)-quinazoline] | – | 7.18 | 7.16
R-4-(2,4-Difluoro-phenyl)-7-fluoro-2-(2-methyl-piperazin-1-yl)-quinazoline [Example 138] | – | 7.45 | 7.61
S-4-(2,4-Difluoro-phenyl)-7-fluoro-2-(2-methyl-piperazin-1-yl)-quinazoline [Example 139] | – | 7.51 | 7.60

Other lines, results leading:

melting point | pKi [1] | pKi [2] | Compound
– | 7.66 | 5.80 | Fc1cccc2c(-c3ccccc3)nc(N3CCNCC3)nc12 [Example 133, 8-Fluoro-4-phenyl-2-piperazin-1-yl-quinazoline]
– | 7.52 | 7.20 | Fc1ccc(-c2nc(N3CCNCC3)nc3cc(F)ccc23)c(Cl)c1 [Example 134, 4-(2-Chloro-4-fluoro-phenyl)-7-fluoro-2-piperazin-1-yl-quinazoline]
– | 7.25 | 6.50 | Fc1ccc2c(-c3nccs3)nc(N3CCNCC3)nc2c1 [Example 135, 7-Fluoro-2-piperazin-1-yl-4-thiazol-2-yl-quinazoline]
– | 7.37 | 7.12 | COc1ccccc1-c1nc(N2CCNCC2)nc2cc(F)ccc12 [Example 136, 4-(2-Methoxy-phenyl)-7-fluoro-2-piperazin-1-yl-quinazoline]
– | 7.78 | 6.72 | Cc1ccc(F)cc1-c1nc(N2CCNCC2)nc2cc(F)ccc12 [Example 137, 7-Fluoro-4-(5-fluoro-2-methyl-phenyl)-2-piperazin-1-yl-quinazoline]
– | 7.55 | 7.78 | Fc1ccc(-c2nc(N3CCNCC3)nc3cc(F)ccc23)c(F)c1 [Example 140, 4-(2,4-Difluoro-phenyl)-7-fluoro-2-piperazin-1-yl-quinazoline]
– | 7.75 | 8.03 | Fc1ccc(-c2nc(N[C@@H]3CCNC3)nc3cc(F)ccc23)c(F)c1 [Example 143, R-[4-(2,4-Difluoro-phenyl)-7-fluoro-quinazolin-2-yl]-pyrrolidin-3-yl-amine]
– | 7.78 | 6.92 | Cc1cccc2nc(N3CCNCC3)nc(-c3ccccc3)c12 [Example 145, 5-Methyl-4-phenyl-2-piperazin-1-yl-quinazoline]
– | 7.50 | 7.72 | Fc1cc2nc(N3CCNCC3)nc(-c3c(F)cccc3F)c2cc1F [Example 146, 4-(2,6-Difluoro-phenyl)-6,7-difluoro-2-piperazin-1-yl-quinazoline]
– | 7.55 | 7.59 | Fc1ccc(-c2nc(N3CCNCC3)nc3cc(F)c(F)cc23)c(F)c1 [Example 147, 4-(2,4-Difluoro-phenyl)-6,7-difluoro-2-piperazin-1-yl-quinazoline]
– | 7.38 | 5.57 | CNC1CCN(c2nc(-c3ccc(F)cc3F)c3ccccc3n2)C1 (centres unmarked) [Example 150, {1-[4-(2,4-Difluoro-phenyl)-quinazolin-2-yl]-pyrrolidin-3-yl}-methyl-amine]
– | 7.59 | < 5.00 | NCCCNc1nc(-c2ccc(F)cc2F)c2ccccc2n1 [Example 152, N1-[4-(2,4-Difluoro-phenyl)-quinazolin-2-yl]-propane-1,3-diamine]
– | 7.24 | 5.27 | Fc1ccc(-c2nc(NC3CCNCC3)nc3ccccc23)c(F)c1 [Example 154, [4-(2,4-Difluoro-phenyl)-quinazolin-2-yl]-piperidin-4-yl-amine]
– | 7.22 | 6.01 | Fc1ccc2c(-c3ccccc3C(F)(F)F)nc(N3CCNCC3)nc2c1 [Example 160, 7-Fluoro-2-piperazin-1-yl-4-(2-trifluoromethyl-phenyl)-quinazoline]
– | 7.94 | 7.28 | Fc1ccc2c(-c3c(F)cccc3F)nc(C3CCNCC3)nc2c1 [Example 162, 4-(2,6-Difluoro-phenyl)-7-fluoro-2-piperidin-4-yl-quinazoline]
– | 7.90 | 6.36 | Fc1ccc2c(-c3ccccc3)nc(N3CCNCC3)nc2c1F [Example 163, 7,8-Difluoro-4-phenyl-2-piperazin-1-yl-quinazoline]
– | 7.50 | 7.74 | CC[C@H]1CNCCN1c1nc(-c2c(F)cccc2F)c2ccccc2n1 [Example 164, S-4-(2,6-Difluoro-phenyl)-2-(2-ethyl-piperazin-1-yl)-quinazoline]
– | 7.51 | 7.84 | CC[C@H]1CNCCN1c1nc(-c2ccc(F)cc2F)c2ccccc2n1 [Example 165, S-4-(2,4-Difluoro-phenyl)-2-(2-ethyl-piperazin-1-yl)-quinazoline]
– | 7.63 | 7.58 | S-[4-(2,4-Difluoro-phenyl)-7-fluoro-quinazolin-2-yl]-pyrrolidin-3-yl-amine [Example 144]
